Data as given in article PMC7663272, “Discovery of Tricyclic Pyranochromenone as Novel Bruton’s Tyrosine Kinase Inhibitors with In Vivo Antirheumatic Activity” (International Journal of Molecular Sciences, 2020).
“Also recorded” adds a separate entry of the source.

What was measured:
BTK = test system: BTK; parameters: method as in not given; conditions: reported tricyclic BTK inhibitors, printed in Figure 2b; ref not given; cited from earlier work
BTK-wt = molecular target: T1, BTK-wt (Homo sapiens, UniProt Q06187); experiment: HotSpot kinase enzymatic assay, BTK-wt; assay type: biochemical; conditions: for inhibition at 10 µM: vs negative control (DMSO), mean of two separate experiments, NA = not active at 10 µM, read-out: % Inhibition (10 µM) BTK-wt; for IC50: HotSpot assay, 10 μM ATP, GraphPad Prism
T1 construct: purchased Reaction Biology Corporation
Description: (§1) Kinase enzymatic assays for BTK, BMX, TXK, TEC, ITK, EGFR, ERBB2, ERBB4, and JAK3 were performed at Reaction Biology Corporation (www.reactionbiology.com, Malvern, PA, USA) using the HotSpot assay platform. Briefly, specific kinase/substrate pairs and the required cofactors were prepared in a reaction buffer comprising 20 mM HEPES (pH 7.5), 10 mM MgCl2, 1 mM EGTA, 0.02% Brij35, 0.02 mg/mL BSA, 0.1 mM Na3VO4, 2 mM DTT, and 1% DMSO. The compounds were added to the reaction mixture and allowed to incubate. Approximately 20 min later, a mixture of ATP (Sigma-Aldrich, St. Louis, MO, USA) and ^33P ATP (PerkinElmer, Waltham, MA, USA) was added to the reaction mixture at a final concentration of 10 μM. The reactions were performed at room temperature for 120 min; subsequently, the reactions were spotted onto P81 ion exchange filter papers (Whatman Inc., Maidstone, UK). […] GraphPad Prism software was used to obtain the IC50 values and perform curve fitting.

BTK-C481S = molecular target: T2, BTK-C481S (Homo sapiens, UniProt Q06187, C481S); experiment: HotSpot kinase enzymatic assay, mutant BTK; assay type: biochemical; conditions: vs negative control (DMSO), mean of two separate experiments
T2 construct: purchased Reaction Biology Corporation
Text: To confirm the role of the electrophilic warhead groups, the acryloyl group of compound 8 was replaced with methylacryloyl (11) and propionyl (12) groups, which are less electrophilic or lack an electrophilic feature. […] The significant difference in the inhibitory activity of compounds 8 and 12 could explain the critical role of the acryloyl moiety in potentiating the BTK inhibitory activity of compound 8. […] It was also confirmed by comparison of the inhibitory activity of the representative compounds (8–10) with electrophilic warheads against wild-type BTK (BTK-wt) and mutant BTK (BTK-C481S).
as §1, with “UK). Any unbound phosphate was removed by thoroughly washing the filter papers with 0.75% phosphoric acid.” for “UK).”

[1] = test system: collagen-induced arthritis (CIA); experiment: Murine model of collagen-induced arthritis (CIA); assay type: in vivo; conditions: mice, 0.3 mg/kg, daily oral; t-test
Description: The in vivo efficacy of compound 8 was evaluated in a murine inflammatory model of collagen-induced arthritis (CIA). The study included four groups: a vehicle-treated control group and three treatment groups. The treatment groups comprised a dexamethasone-treated group, in which dexamethasone served as the positive control, and two treatment groups, in which animals were treated with compound 8 at doses of 10 and 50 mg/kg. Compound 8 was administered once daily for 15 days by oral gavage, and the in vivo efficacy was evaluated by measuring the clinical score and foot volume. […] There were no significant changes in the body weights of animals in all the treatment groups (data not shown) during treatment.
The animal study was approved by the Institutional Animal Care and Use Committee (IACUC) of the Korea Research Institute of Bioscience and Biotechnology on March 15, 2017, under approval number KRIBB-AEC-17090. Male DBA1/JNCrli mice (7 weeks old) were purchased from Japan CRL, Inc. The mice were housed in specific pathogen-free (SPF) conditions and were allowed ad libitum access to food and water. After 7 days of acclimatization, the mice were immunized with 0.05 mL of a type II collagen emulsion (Hooke Kit^TM Chicken Collagen, Cat. No. EK-0210 from Hooke) and Freund’s complete adjuvant by subcutaneous injection at 1.5 cm distal from the base of the tail. After 21 days, the immunized mice were administered a booster injection with 0.05 mL of a type II collagen emulsion (Hooke Kit^TM Chicken Collagen, Cat. No. EK-0211 from Hooke) and Freund’s incomplete adjuvant. The emulsions were prepared according to the manufacturer’s instructions. On day 21, the mice with CIA were randomized into four groups. The animals in the four groups were administered either 0.3 mg/kg dexamethasone (n = 5), 10 mg/kg compound 8 (n = 5), 50 mg/kg compound 8 (n = 5), or vehicle (n = 5), once a day, for […], orally. The vehicle, in which all test compounds were suspended, comprised DMAC (10%), Tween 80 (10%), and DW (80%). Clinical arthritis scores and body weights were assessed three times per week for 15 days. The paw volumes were measured using a LE7500 plethysmometer (Panlab, Barcelona, Spain) on days 0 and 42.

T1 sequence (Q06187 whole entry): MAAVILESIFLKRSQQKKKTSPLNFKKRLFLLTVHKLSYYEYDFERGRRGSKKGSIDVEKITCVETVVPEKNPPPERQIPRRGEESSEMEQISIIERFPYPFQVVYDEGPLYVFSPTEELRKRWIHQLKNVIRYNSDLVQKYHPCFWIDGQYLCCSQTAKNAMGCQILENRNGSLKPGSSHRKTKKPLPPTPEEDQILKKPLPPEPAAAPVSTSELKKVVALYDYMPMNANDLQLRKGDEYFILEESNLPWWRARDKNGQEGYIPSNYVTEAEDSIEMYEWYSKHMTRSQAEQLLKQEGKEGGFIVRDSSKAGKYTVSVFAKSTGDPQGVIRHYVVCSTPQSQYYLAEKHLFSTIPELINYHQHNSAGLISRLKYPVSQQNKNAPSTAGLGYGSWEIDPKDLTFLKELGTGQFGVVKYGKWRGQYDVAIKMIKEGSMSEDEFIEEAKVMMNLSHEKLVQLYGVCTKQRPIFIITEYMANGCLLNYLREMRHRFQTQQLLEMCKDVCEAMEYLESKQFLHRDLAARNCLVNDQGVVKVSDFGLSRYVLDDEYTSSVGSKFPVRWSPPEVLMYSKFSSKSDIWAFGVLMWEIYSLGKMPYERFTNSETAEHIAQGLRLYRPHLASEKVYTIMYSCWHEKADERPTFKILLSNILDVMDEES
T2 sequence (Q06187 whole entry C481S): as the sequence (Q06187 whole entry) above, with C481S counted along it

| Compound | IC50 (BTK) | BTK inhibitory activity (in words) (BTK-wt) | inhibition at 10 µM (BTK-wt) | IC50 (BTK-wt) | inhibition at 10 µM (BTK-C481S) | clinical scores vs control [1] |
| --- | --- | --- | --- | --- | --- | --- |
| Cc1c(-c2c(F)cc(C(N)=O)c3[nH]c4c(c23)CC[C@H](C(C)(C)O)C4)cccc1-n1c(=O)c2cccc(F)c2n(C)c1=O [BMS-986142] | 0.0005 µM | – | – | – | – | – |
| CC(C)=CC(=O)O[C@H]1Cc2cc3ccc(=O)oc3cc2OC1(C)C [Compound 1, Decursin] | – | weak inhibitory activity | 32% | > 10 µM | – | – |
| CC1(C)Oc2cc3oc(=O)ccc3cc2C[C@@H]1O [Compound 2, S-(+)-Decursinol] | – | inactive | 7.7% | > 10 µM | – | – |
| C/C=C/C(=O)O[C@H]1Cc2cc3ccc(=O)oc3cc2OC1(C)C [Compound 3, (7S)-(+)-But-2-enoic acid, 8,8-dimethyl-2-oxo-6,7-dihydro-2H,8H-pyrano[3,2-g]chromen-7-ylester] | – | minimal inhibitory activity | 11.3% | > 10 µM | – | – |
| CC1(C)Oc2cc3oc(=O)ccc3cc2C[C@@H]1OC(=O)/C=C/CBr [Compound 4] | – | minimal inhibitory activity | 20.3% | > 10 µM | – | – |
| CC1(C)Oc2cc3oc(=O)ccc3cc2C[C@@H]1OC(=O)/C=C/c1ccccc1 [Compound 5, (7S)-(+)-trans-Cinnamic acid, 8,8-dimethyl-2-oxo-6,7-dihydro-2H,8H-pyrano[3,2-g]chromen-7-yl ester] | – | no BTK inhibitory activity | – | > 10 µM | – | – |
| CC1(C)Oc2cc3oc(=O)ccc3cc2C[C@@H]1OC(=O)/C=C/c1ccc(F)cc1 [Compound 6, (7S)-(+)-trans-4-Fluorocinnamic acid, 8,8-dimethyl-2-oxo-6,7-dihydro-2H,8H-pyrano[3,2-g]chromen-7-yl ester] | – | no BTK inhibitory activity | – | > 10 µM | – | – |
| CC#CC(=O)O[C@H]1Cc2cc3ccc(=O)oc3cc2OC1(C)C [Compound 7, (7S)-(+)-But-2-yonic acid, 8,8-dimethyl-2-oxo-6,7-dihydro-2H,8H-pyrano[3,2-g]chromen-7-ylester] | – | relatively low BTK inhibitory activity | 34.5% | 7 µM | – | – |
| C=CS(=O)(=O)O[C@H]1Cc2cc3ccc(=O)oc3cc2OC1(C)C [Compound 9, (7S)-(+)-Ethenesulfonic acid, 8,8-dimethyl-2-oxo-6,7-dihydro-2H,8H-pyrano [3,2-g]chromen-7-yl ester] | – | – | 95.8% | 0.9 µM | 15.8% | – |
| CC1(C)Oc2cc3oc(=O)ccc3cc2C[C@@H]1OC(=O)CCl [Compound 10, (7S)-(+)-Chloroacetic acid, 8,8-dimethyl-2-oxo-6,7-dihydro-2H,8H-pyrano [3,2-g]chromen-7-ylester] | – | – | 99.2% | 0.5 µM | 18.6% | – |
| C=C(C)C(=O)O[C@H]1Cc2cc3ccc(=O)oc3cc2OC1(C)C [Compound 11, (7S)-(+)-2-Methylacrylic acid, 8,8-dimethyl-2-oxo-6,7-dihydro-2H,8H-pyrano[3,2-g]chromen-7-yl ester] | – | completely diminished | – | > 10 µM | – | – |
| CCC(=O)O[C@H]1Cc2cc3ccc(=O)oc3cc2OC1(C)C [Compound 12, (7S)-(+)-Propionic acid, 8,8-dimethyl-2-oxo-6,7-dihydro-2H,8H-pyrano [3,2-g]chromen-7-ylester] | – | completely diminished; also recorded: BTK inhibitory activity was lost | – | > 10 µM | – | – |
| C[C@@H]1C[C@H]2[C@@H]3CCC4=CC(=O)C=C[C@]4(C)[C@@]3(F)[C@@H](O)C[C@]2(C)[C@@]1(O)C(=O)CO [dexamethasone, reference compound] | – | – | – | – | – | differed significantly from those with the control |
